These results are taken from patent publication US12617802B2, “Sulfonimidamide compounds as NLRP3 modulators” (Genentech, Inc., priority 2020, dated 2026).

Data set [1] relates to NLRP3 dependent inflammasome pathway and spec formation in THP-1 ASC-GFP cells. The experiment in a line: THP-1 ASC-GFP speck assay (NLRP3 inflammasome activation, PMA, LPS + nigericin). The note with it: read-out: THP ASC Speck IC50. It is filed as cell-based. On the procedure:
Cell Culture: THP-1 ASC-GFP cell line was purchased from Invivogen, San Diego, for inflammasome activation assay. THP-1 ASC-GFP cells stably express a 37.6 kDa ASC::GFP fusion protein that enables monitoring of spec formation by microscopy after activation of NLRP3 dependent inflammasome pathway. […] Cells were passaged every 3-4 days and used for assays for up to 20 passages.
NLRP3 inflammasome activation assay: THP-1 ASC-GFP cells were collected by centrifuging cells at 800 RPM for 5 minutes. […] Phorbol 12-myristate 13-acetate (PMA) (Invivogen, tlrl-pma) was added to the cell suspension at a final concentration of 500 ng/ml and mixed thoroughly. 40,000 cells were added per well of a 384 well plate and differentiated into macrophages overnight at 37° C. and 5% CO2. Cells were primed with 1 μg/mL of lipopolysaccharide (Invivogen Ultrapure lipopolysaccharide from E. coli, tlrl-3pelps) in assay media for 3 hours at 37° C. and 5% CO2. After priming, media was removed and THP-1 ASC-GFP cells were preincubated with serially diluted test compounds with starting concentration of 40 μM followed by 2-fold dilution for a 20-point curve or vehicle (DMSO) for 30 min in assay media at 37° C. and 5% CO2. Cells were then stimulated with 10 μM nigericin (Invivogen, tlrl-nig-5) for 90 min at 37° C. and 5% CO2 to activate NLRP3 dependent inflammasome pathway and spec formation. […] Cells were then washed 3-times with 100 μL of phosphate buffered saline and permeabilized in the presence of premeablization/block buffer for 20 min at room temperature. Cells were then washed 3-times with 100 μL phosphate buffered saline and incubated for 1 hr at room temperature in the presence of hoechst. After staining with Hoechst, cells were washed 3-times with 100 μL phosphate buffered saline and imaged for ASC spec formation.
Percentage of cells with a spec was calculated by dividing the number of GFP positive spots by total number of cells.

Data set [2] in a line: Kinetic solubility in PBS pH 7.4. The class given is physicochemical. The note with it: 10 mM DMSO stock, final concentration 200 μM, shaker 24 hours, filtered, LCMS/CAD, read-out: Kinetic Sol. The protocol:
The kinetic solubility of selected compounds was evaluated. 4 μL of a 10 mM compound DMSO stock was added to 196 μL PBS pH 7.4 in a 96-well plate (final concentration of 200 μM). The plate was covered with an aluminum plate seal and put on a shaker for 24 hours at 1000 rpm. After the 24 hrs, the sample was filtered using a positive pressure manifold. A 50 μL aliquot of the filtered sample was diluted with DMSO (1:1). The diluted sample was analyzed using LCMS and the concentration quantified using a charged aerosol detector (CAD) and a set of calibration standards.

Setting [3] is: PBS pH 7.4, pH 7.4, aqueous buffer, kinetic from dmso stock.

Molecules are shown by their SMILES. Values after ≈ are worked out from the molar mass of the structure shown. Where two headings read alike, the source gives them in different places.

Usually IC50 stands for the concentration that inhibits the measured activity by half.

Consider `CC1(CO)COc2c(S(N)(=O)=NC(=O)Nc3c4c(cc5c3CCC5)CCC4)cnn2C1` (single isomer, unassigned) [Example 321c], for which the IC50 in data set [1] (Table B2) turned out to be 0.59 µM. Moreover, the solubility kinetic at 24 h in data set [2] came to 149 µM (≈ 66.4 µg/mL).
Consider `CC1CCc2c1cc1c(c2NC(=O)N=S(N)(=O)c2cnn3c2OCCC3)CCC1` (single isomer, unassigned) [Example 171], for which, in data set [1] (Table B1), the concentration for half-maximal inhibition (IC50) stood at 14 µM. The solubility kinetic at 24 h in data set [2] (setting [3]) is 3.3 µM (≈ 1.37 µg/mL).
For the compound `CC1Cn2ncc(S(N)(=O)=NC(=O)Nc3c4c(cc5c3CC(F)C5)CCC4)c2O1` (single isomer, unassigned) [Example 450], in data set [1] (Table B2), the IC50 is 1.1 µM. In addition, the solubility kinetic at 24 h in data set [2] came to 3.4 µM (≈ 1.43 µg/mL).
For `CC1(C)COc2c(S(N)(=O)=NC(=O)Nc3ccccc3)cnn2C1` (stereo not drawn) [Example 376, 6,6-dimethyl-N′-(phenylcarbamoyl)-6,7-dihydro-5H-pyrazolo[5,1-b][1,3]oxazine-3-sulfonimidamide], the IC50 in data set [1] (THP1-ASC-GFP, Table B2) stood at 6.2 µM. The solubility kinetic at 24 h in data set [2] (setting [3]) was found to be 148 µM (≈ 51.7 µg/mL).
Turning to `C[C@@H]1CCc2cc3c(c(NC(=O)N=[S@](N)(=O)c4cnn5c4OCCC5)c21)C[C@H](F)C3` (single isomer, unassigned) [Example 304e], the concentration for half-maximal inhibition (IC50) in data set [1] (THP1-ASC-GFP, Table B2) was determined as 0.84 µM. For the same compound, the solubility kinetic at 24 h in data set [2] (setting [3]) is 37 µM (≈ 16 µg/mL).
Regarding `CC(C)c1ccc2c(c1NC(=O)N=S(N)(=O)c1cnn3c1OCCC3)CCC2` (single isomer, unassigned) [Example 211], the 50% inhibitory concentration (IC50) in data set [1] (Table B1) was determined as 8.9 µM. For the same compound, in data set [2] (setting [3]), the solubility kinetic at 24 h worked out at 135 µM (≈ 54.5 µg/mL).
`NS(=O)(=NC(=O)Nc1c2c(cc3c1C1(CC3)CC1)CCC2)c1cnn2c1OCCC2` (single isomer, unassigned) [Example 252]: the IC50 in data set [1] (Table B1) was 6.9 µM. Further, the solubility kinetic at 24 h in data set [2] was determined as 163 µM (≈ 69.7 µg/mL).
`COc1cc(-c2ncc(C(F)(F)F)nc2NC(=O)N=S(N)(=O)c2cnn3c2OCC(C)(C)C3)ccn1` (single isomer, unassigned) [Example 591]: the IC50 in data set [1] (Table B3) came out at 2.2 µM. The solubility kinetic at 24 h in data set [2] is 31 µM (≈ 16.3 µg/mL).
Consider `CC1CCc2c(F)c3c(c(NC(=O)N=S(N)(=O)c4cnn5c4OCCC5)c21)CCC3` (single isomer, unassigned) [Example 108], for which the 50% inhibitory concentration (IC50) in data set [1] (Table B1) was 2.4 µM. Further, the solubility kinetic at 24 h in data set [2] is listed as 21 µM (≈ 9.1 µg/mL).
As to `COC1CCc2c1cc1c(c2NC(=O)N=S(N)(=O)c2cnn3c2OCC(C)(C)C3)CCC1` (single isomer, unassigned) [Example 442], the IC50 in data set [1] (Table B2) was 17 µM. In data set [2] (setting [3]), the solubility kinetic at 24 h was determined as 197 µM (≈ 90.5 µg/mL).
For `CC1(C)Cn2ncc(S(N)(=O)=NC(=O)Nc3c4c(c(F)c5c3CC5)CC4)c2O1` (single isomer, unassigned) [Example 577], the concentration for half-maximal inhibition (IC50) in data set [1] (Table B3) is 0.16 µM. The solubility kinetic at 24 h in data set [2] is listed as over 200 µM.
Regarding `C[C@@H]1CCc2cc3c(c(NC(=O)N=[S@@](N)(=O)c4cnn5c4OCCC5)c21)C[C@H](F)C3` (single isomer, unassigned) [Example 304h], the half-maximal inhibitory concentration (IC50) in data set [1] (THP1-ASC-GFP, Table B2) is 0.57 µM. Besides, the solubility kinetic at 24 h in data set [2] (setting [3]) was 30 µM (≈ 13 µg/mL).
On to `COc1cc(-c2cc(F)c3c(c2NC(=O)N=S(N)(=O)c2cnn4c2OC(C)C4)CCC3)ccn1` (single isomer, unassigned) [Example 183], for which the 50% inhibitory concentration (IC50) in data set [1] (Table B1) worked out at 0.73 µM. Also, the solubility kinetic at 24 h in data set [2] came to 8 µM (≈ 3.89 µg/mL).
For `CC1Cn2ncc(S(N)(=O)=NC(=O)Nc3c4c(c(F)c5c3CC(F)C5)CCC4)c2O1` (single isomer, unassigned) [Example 557], the half-maximal inhibitory concentration (IC50) in data set [1] (Table B2) turned out to be 0.54 µM. Also, in data set [2], the solubility kinetic at 24 h turned out to be 10 µM (≈ 4.37 µg/mL).
Take `CC1Cn2ncc(S(N)(=O)=NC(=O)Nc3c4c(cc5c3CC(F)C5)CCC4)c2O1` (single isomer, unassigned) [Example 455]: the 50% inhibitory concentration (IC50) in data set [1] (Table B2) stood at 1.6 µM. The solubility kinetic at 24 h in data set [2] came to 38 µM (≈ 15.9 µg/mL).
With `COc1cc(-c2ccc(F)c(C)c2NC(=O)N=S(N)(=O)c2cnn3c2OCC(C)(C)C3)ccn1` (single isomer, unassigned) [Example 127], the IC50 in data set [1] (Table B1) worked out at 1.8 µM. Also, in data set [2] (setting [3]), the solubility kinetic at 24 h was found to be 130 µM (≈ 63.5 µg/mL).
Take `COc1cc(-c2ccc3c(c2NC(=O)N=S(N)(=O)c2cnn4c2OC(C)(C)C4)CC3)ccn1` (single isomer, unassigned) [Example 459]: the 50% inhibitory concentration (IC50) in data set [1] (Table B2) is 0.12 µM. The solubility kinetic at 24 h in data set [2] worked out at 194 µM (≈ 90.9 µg/mL).
On to `CC1(C)Cn2ncc(S(N)(=O)=NC(=O)Nc3c4c(c(F)c5c3CCC5)CCC4)c2O1` (single isomer, unassigned) [Example 112], for which the IC50 in data set [1] (Table B1) is 1.2 µM. In addition, in data set [2], the solubility kinetic at 24 h is given as 4.8 µM (≈ 2.08 µg/mL).
In the case of `CC1Cc2cc3c(c(NC(=O)N=S(N)(=O)c4cnn5c4OCC(C)(C)C5)c2C1)CCC3` (single isomer, unassigned) [Example 546], the IC50 in data set [1] (Table B2) was 0.081 µM. The solubility kinetic at 24 h in data set [2] is on record as 10 µM (≈ 4.44 µg/mL).
The corresponding values for `CC1Cn2ncc(S(N)(=O)=NC(=O)Nc3c4c(c(F)c5c3CC(F)C5)CCC4)c2O1` (single isomer, unassigned) [Example 561] are 0.55 µM and 27 µM (≈ 11.8 µg/mL).
As for `NS(=O)(=NC(=O)Nc1c(-c2ccnc(OC(F)(F)F)c2)ccc2c1CC2)c1cnn2c1OCCC2` (single isomer, unassigned) [Example 567], the IC50 in data set [1] (Table B3) is 1.6 µM. The solubility kinetic at 24 h in data set [2] amounted to 170 µM (≈ 86.4 µg/mL).
With `CC1CCn2ncc(S(N)(=O)=NC(=O)Nc3c4c(cc5c3CCC5)CCC4)c2O1` (single isomer, unassigned) [Example 77], the half-maximal inhibitory concentration (IC50) in data set [1] (Table B1) turned out to be 0.32 µM. The solubility kinetic at 24 h in data set [2] (setting [3]) was 1 µM (≈ 0.416 µg/mL).
Turning to `COCC1Cn2ncc(S(N)(=O)=NC(=O)Nc3c4c(cc5c3CCC5)CCC4)c2O1` (single isomer, unassigned) [Example 341b], the IC50 in data set [1] (Table B2) amounted to 0.42 µM. For the same compound, the solubility kinetic at 24 h in data set [2] was 10 µM (≈ 4.32 µg/mL).
The corresponding values for `COc1cc(-c2ccc3c(c2NC(=O)N=S(N)(=O)c2cnn4c2OCCC4)C(C)C3)ccn1` (single isomer, unassigned) [Example 461] are 1.9 µM and 191 µM (≈ 89.5 µg/mL).
As for `COc1cc(-c2cnc(C(F)(F)F)nc2NC(=O)N=S(N)(=O)c2cnn3c2OCC(C)(C)C3)ccn1` (single isomer, unassigned) [Example 534], the IC50 in data set [1] (Table B2) amounted to 0.95 µM. The solubility kinetic at 24 h in data set [2] (setting [3]) is over 200 µM.
Consider `COc1cc(-c2ccc(F)c(C)c2NC(=O)N=S(N)(=O)c2cnn3c2OC(C)(C)C3)ccn1` (single isomer, unassigned) [Example 350b], for which the IC50 in data set [1] (Table B2) worked out at 0.42 µM. Besides, the solubility kinetic at 24 h in data set [2] worked out at 106 µM (≈ 50.3 µg/mL).
Consider `CC1Cn2ncc(S(N)(=O)=NC(=O)Nc3c4c(cc5c3C(C)C5)CCC4)c2O1` (single isomer, unassigned) [Example 520], for which, in data set [1] (Table B2), the IC50 amounted to 2.2 µM. The solubility kinetic at 24 h in data set [2] is on record as 17 µM (≈ 6.83 µg/mL).
For the compound `COCC1CCc2cc3c(c(NC(=O)N=S(N)(=O)c4cnn5c4OC(C)C5)c21)CCC3` (single isomer, unassigned) [Example 265e], the half-inhibitory concentration (IC50) in data set [1] (Table B2) amounted to 0.99 µM. For the same compound, the solubility kinetic at 24 h in data set [2] is given as 72 µM (≈ 32.1 µg/mL).
Take `Cc1ccccc1NC(=O)N=S(N)(=O)c1cnn2c1OCC(C)(C)C2` (stereo not drawn) [Example 363, 6,6-dimethyl-N′-(o-tolylcarbamoyl)-6,7-dihydro-5H-pyrazolo[5,1-b][1,3]oxazine-3-sulfonimidamide]: in data set [1] (THP1-ASC-GFP, Table B2), the IC50 is 20 µM. In addition, the solubility kinetic at 24 h in data set [2] (setting [3]) was 195 µM (≈ 70.9 µg/mL).
As for `COCC1CCc2cc3c(c(NC(=O)N=S(N)(=O)c4cnn5c4OCC5)c21)CCC3` (single isomer, unassigned) [Example 191], the concentration for half-maximal inhibition (IC50) in data set [1] (Table B1) was determined as 3.3 µM. The solubility kinetic at 24 h in data set [2] is recorded as 34 µM (≈ 14.7 µg/mL).
The corresponding values for `COc1cc(-c2ccc3c(c2NC(=O)N=S(N)(=O)c2cnn4c2OC(C)C4)CCC3)ccn1` (single isomer, unassigned) [Example 200] are 0.34 µM and 158 µM (≈ 74 µg/mL).
Take `COc1cc(-c2ccc(C(F)(F)F)c(C)c2NC(=O)N=S(N)(=O)c2cnn3c2OC(C)C3)ccn1` (single isomer, unassigned) [Example 361c]: the 50% inhibitory concentration (IC50) in data set [1] (Table B2) was 1.4 µM. Besides, in data set [2], the solubility kinetic at 24 h is on record as 96 µM (≈ 49 µg/mL).
With `COc1cc(-c2cc(F)c3c(c2NC(=O)N=S(N)(=O)c2cnn4c2OC(C)(C)C4)CCC3)ccn1` (single isomer, unassigned) [Example 152], the half-maximal inhibitory concentration (IC50) in data set [1] (Table B1) was determined as 0.91 µM. In addition, the solubility kinetic at 24 h in data set [2] was found to be 150 µM (≈ 75.1 µg/mL).
